Experimental data taken from article PMC8086052 (Japanese Journal of Clinical Oncology, 2021).
Entries after “also recorded” stand apart in the source; their conditions may differ. Like-named read-outs stand apart in the source and are kept apart here.

Columns and labels:
[1] = Plasma pharmacokinetics of niraparib and M1, cycle 1 days 1 and 21; format: in vivo, human; details: for AUC(0-t) / Cmax: oral; for Cmax / Cmin: geometric mean (SD)
[2] = test system: Japanese patients with advanced solid tumours; details: for Tolerability: 200 or 300 mg/day, Japanese patients with advanced solid tumours; for Patients with dose-limiting toxicity (DLT) in cycle 1: cohort 2, 300 mg/day (n = 6)
[3] = test system: metastatic or locally advanced solid tumours
[4] = test system: non-Japanese patients with advanced solid tumours; details: phase I studies in USA and Europe; cited from earlier work
[5] = cancer patients; cited from earlier work
[6] = test system: platinum-sensitive recurrent ovarian cancer; details: cited from earlier work
[7] = test system: newly diagnosed advanced ovarian cancer; details: regardless of presence or absence of HRd; cited from earlier work
[8] = cited from earlier work
[9] = Niraparib 200 mg/day (n = 3), Any grade
[10] = Niraparib 200 mg/day (n = 3), Grade 3/4
[11] = Niraparib 300 mg/day (n = 6), Any grade
[12] = Niraparib 300 mg/day (n = 6), Grade 3/4
[13] = cohort 2, 300 mg/day, listed as niraparib
[14] = cohort 2, 300 mg/day, three patients

SMILES: NC(=O)c1cccc2cn(-c3ccc([C@@H]4CCCNC4)cc3)nc12 [Niraparib, niraparib]
- Dose dependence of mean Cmax and AUC0–24 ([1]; 200 and 300 mg/day, after multiple doses): increased dose-proportionally; also recorded: generally increased in a dose-proportional manner
- AUC(0-t) ([1]; human, plasma, 200 mg/day): 4930 ng·h/mL
- Cmax ([1]; human, plasma, 200 mg/day, plasma, Cycle 1 Day 1, Niraparib 200 mg/day (n = 3)): 443 ng/mL
- Cmax ([1]; human, plasma, 200 mg/day, plasma, Cycle 1 Day 21, Niraparib 200 mg/day (n = 3)): 729 ng/mL
- AUC(0-t) ([1]; human, plasma, 300 mg/day): 6270 ng·h/mL
- Cmax ([1]; human, plasma, 300 mg/day, plasma, Cycle 1 Day 1, Niraparib 300 mg/day (n = 6)): 530 ng/mL
- Cmax ([1]; human, plasma, 300 mg/day, plasma, Cycle 1 Day 21, Niraparib 300 mg/day (n = 4)): 1170 ng/mL
- Tmax ([1]; human, plasma, po, median tmax, single (cycle 1, day 1) and multiple (cycle 1, day 21) oral administration of niraparib 200 and 300 mg/day): 3 to 4 h
- Cmin ([1]; plasma, Cycle 1 Day 21, Niraparib 200 mg/day (n = 3)): 405.8 (267.8) ng/ml
- Cmin ([1]; plasma, Cycle 1 Day 21, Niraparib 300 mg/day (n = 4)): 592.3 (138.2) ng/ml
- Time to recovery from grade 4 thrombocytopenia / platelet count decreased ([2]; 300 mg/day cohort): ~ 10 days
- Patients with grade 4 thrombocytopenia or platelet count decreased ([2]; 300 mg/day cohort, day 14 of cycle 1 and day 8 of cycle 2): two patients
- AEs of special interest (myelodysplastic syndrome, acute myeloid leukaemia, hypertensive crisis) ([2]; 200 and 300 mg/day): no AEs of special interest
- Tolerability [2]: tolerable
- Tolerability ([2]; listed as niraparib): generally safe and tolerable
- Patients with events: ALT increased [2, 9]: 0 n (%)
- Patients with events: AST increased [2, 9]: 0 n (%)
- Patients with events: Anaemia [2, 9]: 0 n (%)
- Patients with events: Any TEAE [2, 9]: 3 (100.0) n (%)
- Patients with events: Blood ALP increased [2, 9]: 1 (33.3) n (%)
- Patients with events: Blood creatinine increased [2, 9]: 1 (33.3) n (%)
- Patients with events: Chest pain [2, 9]: 0 n (%)
- Patients with events: Constipation [2, 9]: 1 (33.3) n (%)
- Patients with events: Decreased appetite [2, 9]: 2 (66.7) n (%)
- Patients with events: Diabetes mellitus [2, 9]: 0 n (%)
- Patients with events: Diarrhoea [2, 9]: 0 n (%)
- Patients with events: Fatigue [2, 9]: 2 (66.7) n (%)
- Patients with events: Febrile neutropenia [2, 9]: 0 n (%)
- Patients with events: GGT increased [2, 9]: 0 n (%)
- Patients with events: Hypertension [2, 9]: 0 n (%)
- Patients with events: Malaise [2, 9]: 1 (33.3) n (%)
- Patients with events: Nausea [2, 9]: 1 (33.3) n (%)
- Patients with events: Platelet count decreased [2, 9]: 1 (33.3) n (%)
- Patients with events: Pyelonephritis [2, 9]: 0 n (%)
- Patients with events: Thrombocytopenia [2, 9]: 0 n (%)
- Patients with events: Vomiting [2, 9]: 2 (66.7) n (%)
- Patients with events: White blood cell count decreased [2, 9]: 1 (33.3) n (%)
- Patients with events: ALT increased [2, 10]: 0 n (%)
- Patients with events: AST increased [2, 10]: 0 n (%)
- Patients with events: Anaemia [2, 10]: 0 n (%)
- Patients with events: Any TEAE [2, 10]: 1 (33.3) n (%)
- Patients with events: Blood ALP increased [2, 10]: 1 (33.3) n (%)
- Patients with events: Blood creatinine increased [2, 10]: 0 n (%)
- Patients with events: Chest pain [2, 10]: 0 n (%)
- Patients with events: Constipation [2, 10]: 0 n (%)
- Patients with events: Decreased appetite [2, 10]: 0 n (%)
- Patients with events: Diabetes mellitus [2, 10]: 0 n (%)
- Patients with events: Diarrhoea [2, 10]: 0 n (%)
- Patients with events: Fatigue [2, 10]: 0 n (%)
- Patients with events: Febrile neutropenia [2, 10]: 0 n (%)
- Patients with events: GGT increased [2, 10]: 0 n (%)
- Patients with events: Hypertension [2, 10]: 0 n (%)
- Patients with events: Malaise [2, 10]: 0 n (%)
- Patients with events: Nausea [2, 10]: 0 n (%)
- Patients with events: Platelet count decreased [2, 10]: 0 n (%)
- Patients with events: Pyelonephritis [2, 10]: 0 n (%)
- Patients with events: Thrombocytopenia [2, 10]: 0 n (%)
- Patients with events: Vomiting [2, 10]: 0 n (%)
- Patients with events: White blood cell count decreased [2, 10]: 1 (33.3) n (%)
- Patients with events: ALT increased [2, 11]: 3 (50.0) n (%)
- Patients with events: AST increased [2, 11]: 5 (83.3) n (%)
- Patients with events: Anaemia [2, 11]: 3 (50.0) n (%)
- Patients with events: Any TEAE [2, 11]: 6 (100.0) n (%)
- Patients with events: Blood ALP increased [2, 11]: 4 (66.7) n (%)
- Patients with events: Blood creatinine increased [2, 11]: 1 (16.7) n (%)
- Patients with events: Chest pain [2, 11]: 2 (33.3) n (%)
- Patients with events: Constipation [2, 11]: 2 (33.3) n (%)
- Patients with events: Decreased appetite [2, 11]: 2 (33.3) n (%)
- Patients with events: Diabetes mellitus [2, 11]: 1 (16.7) n (%)
- Patients with events: Diarrhoea [2, 11]: 2 (33.3) n (%)
- Patients with events: Fatigue [2, 11]: 1 (16.7) n (%)
- Patients with events: Febrile neutropenia [2, 11]: 1 (16.7) n (%)
- Patients with events: GGT increased [2, 11]: 3 (50.0) n (%)
- Patients with events: Hypertension [2, 11]: 2 (33.3) n (%)
- Patients with events: Malaise [2, 11]: 2 (33.3) n (%)
- Patients with events: Nausea [2, 11]: 4 (66.7) n (%)
- Patients with events: Platelet count decreased [2, 11]: 5 (83.3) n (%)
- Patients with events: Pyelonephritis [2, 11]: 1 (16.7) n (%)
- Patients with events: Thrombocytopenia [2, 11]: 1 (16.7) n (%)
- Patients with events: Vomiting [2, 11]: 2 (33.3) n (%)
- Patients with events: White blood cell count decreased [2, 11]: 1 (16.7) n (%)
- Patients with events: ALT increased [2, 12]: 1 (16.7) n (%)
- Patients with events: AST increased [2, 12]: 0 n (%)
- Patients with events: Anaemia [2, 12]: 1 (16.7) n (%)
- Patients with events: Any TEAE [2, 12]: 4 (66.7) n (%)
- Patients with events: Blood ALP increased [2, 12]: 1 (16.7) n (%)
- Patients with events: Blood creatinine increased [2, 12]: 0 n (%)
- Patients with events: Chest pain [2, 12]: 0 n (%)
- Patients with events: Constipation [2, 12]: 0 n (%)
- Patients with events: Decreased appetite [2, 12]: 0 n (%)
- Patients with events: Diabetes mellitus [2, 12]: 1 (16.7) n (%)
- Patients with events: Diarrhoea [2, 12]: 0 n (%)
- Patients with events: Fatigue [2, 12]: 0 n (%)
- Patients with events: Febrile neutropenia [2, 12]: 1 (16.7) n (%)
- Patients with events: GGT increased [2, 12]: 2 (33.3) n (%)
- Patients with events: Hypertension [2, 12]: 0 n (%)
- Patients with events: Malaise [2, 12]: 0 n (%)
- Patients with events: Nausea [2, 12]: 0 n (%)
- Patients with events: Platelet count decreased [2, 12]: 1 (16.7) n (%)
- Patients with events: Pyelonephritis [2, 12]: 1 (16.7) n (%)
- Patients with events: Thrombocytopenia [2, 12]: 1 (16.7) n (%)
- Patients with events: Vomiting [2, 12]: 0 n (%)
- Patients with events: White blood cell count decreased [2, 12]: 0 n (%)
- Patients who discontinued treatment due to a TEAE ([2]; cohort 1, 200 mg/day): no patient
- Treatment-related TEAE: decreased appetite ([2]; cohort 1, 200 mg/day): 2 n
- Patients with grade 3 treatment-related AEs ([2]; cohort 1, 200 mg/day, blood alkaline phosphatase increased, white blood cell count decreased): one patient
- Treatment-related TEAE: decreased appetite ([2]; cohort 1, 200 mg/day, listed as niraparib): 66.7%
- Patients with grade ≥ 3 treatment-related AEs ([2]; cohort 2, 300 mg/day): five patients
- Patients with treatment-related grade 3 alanine aminotransferase increased ([2]; cohort 2, 300 mg/day): one patient
- Patients with treatment-related grade 3 anaemia ([2]; cohort 2, 300 mg/day): two patients
- Patients with treatment-related grade 3 febrile neutropenia ([2]; cohort 2, 300 mg/day): one patient
- Patients with treatment-related grade 3 gamma-glutamyl transferase increased ([2]; cohort 2, 300 mg/day): one patient
- Total number of grade ≥ 3 treatment-related AEs ([2]; cohort 2, 300 mg/day): 11
- Treatment-related TEAE: aspartate aminotransferase increased ([2]; cohort 2, 300 mg/day): 5 n
- Treatment-related TEAE: platelet count decreased ([2]; cohort 2, 300 mg/day): 5 n
- Patients with dose-limiting toxicity (DLT) in cycle 1 [2]: 16.7%
- Patients with dose-limiting toxicity (DLT) in cycle 1 ([2]; grade 4 platelet count decreased): one patient
- Treatment-related TEAE: aspartate aminotransferase increased [2, 13]: 83.3%
- Treatment-related TEAE: platelet count decreased [2, 13]: 83.3%
- Patients who discontinued treatment due to a TEAE ([2]; cohort 2, 300 mg/day, malaise and gamma-glutamyl transferase increased): Two patients
- Patients with a serious AE ([2]; cohort 2, 300 mg/day, pyelonephritis, considered unrelated to niraparib): One patient
- Treatment-related TEAE: alkaline phosphatase increased [2, 14]: 50.0%
- Treatment-related TEAE: anaemia [2, 14]: 50.0%
- Treatment-related TEAE: nausea [2, 14]: 50.0%
- Patients with PD (progressive disease) ([3]; both cohorts): four
- Patients with partial response ([3]; both in cohort 2 (300 mg/day), lung cancer and bile duct cancer): Two patients
- Patients with PD (progressive disease) ([3]; cohort 1, 200 mg/day): All patients
- maximum tolerated dose (MTD) [4]: 300 mg once daily
- bioavailability after oral administration [5]: ~ 73%
- progression-free survival (PFS) compared with placebo ([6]; maintenance treatment, regardless of germline BRCA mutation status): significantly prolonged
- Patients requiring a dosage reduction to 200 mg once daily ([6]; starting dosage 300 mg once daily): ~ 70%
- progression-free survival (PFS) compared with placebo [7]: significantly prolonged
- tumour exposure at steady state [8]: high
